Measured values published in PubChem BioAssay (NCI).
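Cells were grown in 96-well plates and exposed to each compound for 48 hours at five concentrations; endpoints were interpolated linearly between bracketing concentrations, or set to the highest concentration if not reached. GI50 = concentration required for 50% inhibition of growth. TGI: total growth inhibition.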

Legend:
Assay in all cases: NCI anticancer screen, dose series, 48 h
[1] = system: SF-268 CNS
[2] = system: SN12C renal
[3] = system: SF-539 CNS
[4] = system: LOX IMVI melanoma
[5] = system: CAKI-1 renal
[6] = system: CCRF-CEM leukemia
[7] = system: SR leukemia
[8] = system: DU-145 prostate
[9] = system: BT-549 breast
[10] = system: MALME-3M melanoma
[11] = system: HOP-62 NSCLC
[12] = system: OVCAR-5 ovarian
[13] = system: SNB-19 CNS
[14] = system: M14 melanoma
[15] = system: NCI-H23 lung
[16] = system: HCT-15 colon
[17] = system: NCI-H226 lung
[18] = system: UACC-62 melanoma
[19] = system: NCI-H460 lung
[20] = system: HCT-116 colon
[21] = system: HL-60(TB) leukemia
[22] = system: MCF7 breast
[23] = system: OVCAR-8 ovarian
[24] = system: PC-3 prostate
[25] = system: K-562 leukemia
[26] = system: SK-MEL-28 melanoma
[27] = system: IGROV1 ovarian
[28] = system: NCI/ADR-RES ovarian
[29] = system: UO-31 renal
[30] = system: A498 renal
[31] = system: SK-OV-3 ovarian
[32] = system: SF-295 CNS
[33] = system: HCC-2998 colon
[34] = system: OVCAR-4 ovarian
[35] = system: MDA-MB-435
[36] = system: HT29 colon
[37] = system: NCI-H522 lung
[38] = system: TK-10 renal
[39] = system: HS 578T breast
[40] = system: ACHN renal
[41] = system: KM12 colon
[42] = system: SK-MEL-5 melanoma
[43] = system: 786-0 renal
[44] = system: OVCAR-3 ovarian
[45] = system: RXF 393 renal
[46] = system: UACC-257 melanoma
[47] = system: MOLT-4 leukemia
[48] = system: SK-MEL-2 melanoma
[49] = system: T-47D breast
[50] = system: MDA-MB-231 breast
[51] = system: SW-620 colon
[52] = system: EKVX NSCLC
[53] = system: HOP-92 NSCLC
[54] = system: A549 NSCLC
[55] = system: COLO 205 colon
[56] = system: SNB-75 CNS
[57] = system: RPMI-8226 leukemia
[58] = system: MDA-N
[59] = system: U251 CNS

## COc1cc(/C=C/C(=O)CC(=O)/C=C/c2cc(OC)c(OC)c(OC)c2)cc(OC)c1OC
[1]
  GI50: 8.23 µM
  TGI: > 100 µM
[2]
  GI50: 3.59 µM
  TGI: 37 µM
[3]
  GI50: 4.85 µM
  TGI: 71.8 µM
[4]
  GI50: 2190 nM
  TGI: 9.14 µM
[5]
  GI50: 3.27 µM
  TGI: 16.5 µM
[6]
  GI50: 2580 nM
  TGI: > 100 µM
[7]
  GI50: 2190 nM
  TGI: 9.55 µM
[8]
  GI50: 6.71 µM
  TGI: 31.9 µM
[9]
  GI50: 4.28 µM
  TGI: 22.1 µM
[10]
  GI50: 5.06 µM
  TGI: 21.7 µM
[11]
  GI50: 4.45 µM
  TGI: 27.7 µM
[12]
  GI50: 17.2 µM
  TGI: > 100 µM
[13]
  GI50: 4.36 µM
  TGI: > 100 µM
[14]
  GI50: 3.9 µM
  TGI: 40 µM
[15]
  GI50: 3.34 µM
  TGI: 20.2 µM
[16]
  GI50: 3.32 µM
  TGI: 12.7 µM
[17]
  GI50: 10.2 µM
  TGI: > 100 µM
[18]
  GI50: 3.17 µM
  TGI: 13.4 µM
[19]
  GI50: 3.94 µM
  TGI: 18.4 µM
[20]
  GI50: 1710 nM
  TGI: 4.26 µM
[21]
  GI50: 5.15 µM
  TGI: > 100 µM
[22]
  GI50: 2130 nM
  TGI: > 100 µM
[23]
  GI50: 3.04 µM
  TGI: 13.8 µM
[24]
  GI50: 3.02 µM
  TGI: > 100 µM
[25]
  GI50: 2820 nM
  TGI: > 100 µM
[26]
  GI50: 4.24 µM
  TGI: 32.8 µM
[27]
  GI50: 2830 nM
  TGI: 8.22 µM
[28]
  GI50: 4.18 µM
  TGI: > 100 µM
[29]
  GI50: 3000 nM
  TGI: 13.1 µM
[30]
  GI50: 10.4 µM
  TGI: 42.9 µM
[31]
  GI50: 12 µM
  TGI: 67.6 µM
[32]
  GI50: 3.16 µM
  TGI: 17.2 µM
[33]
  GI50: 15.9 µM
  TGI: > 100 µM
[34]
  GI50: 3.27 µM
  TGI: 19.7 µM
[35]
  GI50: 2520 nM
  TGI: 7.23 µM
[36]
  GI50: 3.66 µM
  TGI: 13.6 µM
[37]
  GI50: 1900 nM
  TGI: 3.78 µM
[38]
  GI50: 4.08 µM
  TGI: 19.2 µM
[39]
  GI50: 3 µM
  TGI: 9.51 µM
[40]
  GI50: 3.95 µM
  TGI: 14.1 µM
[41]
  GI50: 4.58 µM
  TGI: 63 µM
[42]
  GI50: 4.51 µM
  TGI: 46 µM
[43]
  GI50: 4.05 µM
  TGI: 17.6 µM
[44]
  GI50: 2340 nM
  TGI: 5.91 µM
[45]
  GI50: 3.09 µM
  TGI: 8.84 µM
[46]
  GI50: 3.23 µM
  TGI: 31.1 µM
[47]
  GI50: 2980 nM
  TGI: > 100 µM
[48]
  GI50: 5.87 µM
  TGI: 78.8 µM
[49]
  GI50: 3.98 µM
  TGI: 84.5 µM
[50]
  GI50: 3.13 µM
  TGI: 9.12 µM
[51]
  GI50: 2560 nM
  TGI: 11.3 µM
[52]
  GI50: 3.59 µM
  TGI: 40.9 µM
[53]
  GI50: 2470 nM
  TGI: 8.34 µM
[54]
  GI50: 5.76 µM
  TGI: > 100 µM
[55]
  GI50: 6.93 µM
  TGI: > 100 µM
[56]
  GI50: 3.89 µM
  TGI: 50.5 µM

## CCOC(=O)C(Cl)(NC(=O)NC(Cl)(C(=O)OCC)C(F)(F)F)C(F)(F)F (configuration not stated)
[1]
  TGI: > 100 µM
[2]
  TGI: > 100 µM
[3]
  TGI: > 100 µM
[4]
  TGI: > 100 µM
[57]
  TGI: > 100 µM
[6]
  TGI: > 100 µM
[7]
  TGI: > 100 µM
[58]
  TGI: > 100 µM
[12]
  TGI: > 100 µM
[13]
  TGI: > 100 µM
[15]
  TGI: > 100 µM
[16]
  TGI: > 100 µM
[20]
  TGI: > 100 µM
[21]
  TGI: > 100 µM
[24]
  TGI: > 100 µM
[25]
  TGI: > 100 µM
[26]
  TGI: > 100 µM
[28]
  TGI: > 100 µM
[29]
  TGI: > 100 µM
[30]
  TGI: > 100 µM
[31]
  TGI: > 100 µM
[33]
  TGI: > 100 µM
[36]
  TGI: > 100 µM
[39]
  TGI: > 100 µM
[40]
  TGI: > 100 µM
[43]
  TGI: > 100 µM
[45]
  TGI: > 100 µM
[46]
  TGI: > 100 µM
[47]
  TGI: > 100 µM
[48]
  TGI: > 100 µM
[55]
  TGI: > 100 µM
[59]
  TGI: > 100 µM
[56]
  TGI: > 100 µM

## CCCCCCCCCCCCCCCCCCNc1ccn(C2OC(COP(=O)(O)OC3CC(n4cc(F)c(=O)[nH]c4=O)OC3COP(=O)(O)OCC3OC(n4ccc(N)nc4=O)C(O)C3O)C(O)C2O)c(=O)n1 (configuration not stated)
[2]
  TGI: 98.2 µM
[3]
  TGI: 2.17 µM
[4]
  TGI: 20 µM
[57]
  TGI: 71.4 µM
[5]
  TGI: 35.5 µM
[6]
  TGI: 3.37 µM
[7]
  TGI: 25.6 µM
[8]
  TGI: 39.8 µM
[9]
  TGI: 33.4 µM
[10]
  TGI: > 100 µM
[11]
  TGI: > 76.8 µM
[12]
  TGI: > 100 µM
[13]
  TGI: > 57.9 µM
[14]
  TGI: 23.4 µM
[15]
  TGI: > 45.7 µM
[16]
  TGI: 41.4 µM
[17]
  TGI: > 82.2 µM
[18]
  TGI: > 44.4 µM
[19]
  TGI: > 32.7 µM
[20]
  TGI: > 60.7 µM
[21]
  TGI: 11.4 µM
[22]
  TGI: > 100 µM
[23]
  TGI: > 51.8 µM
[24]
  TGI: > 66.7 µM
[25]
  TGI: > 100 µM
[26]
  TGI: > 100 µM
[27]
  TGI: 54.9 µM
[28]
  TGI: 53.5 µM
[29]
  TGI: > 51.9 µM
[30]
  TGI: > 100 µM
[31]
  TGI: > 58.8 µM
[32]
  TGI: > 51.9 µM
[33]
  TGI: 27.3 µM
[34]
  TGI: > 100 µM
[35]
  TGI: > 62.5 µM
[36]
  TGI: > 59.4 µM
[37]
  TGI: > 69.7 µM
[38]
  TGI: > 100 µM
[39]
  TGI: > 100 µM
[40]
  TGI: > 100 µM
[41]
  TGI: 41.5 µM
[42]
  TGI: > 48.8 µM
[43]
  TGI: > 58.1 µM
[44]
  TGI: > 100 µM
[45]
  TGI: > 75.5 µM
[46]
  TGI: > 57.3 µM
[47]
  TGI: 29.2 µM
[48]
  TGI: 37.3 µM
[49]
  TGI: > 100 µM
[50]
  TGI: > 61.7 µM
[51]
  TGI: > 57.3 µM
[52]
  TGI: > 74.6 µM
[53]
  TGI: > 100 µM
[54]
  TGI: > 51 µM
[55]
  TGI: > 48.7 µM
[59]
  TGI: > 50.4 µM
[56]
  TGI: > 100 µM
